Laboratory results reported in PubChem BioAssay (NCI).
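Five concentrations, 48 hours, 96-well plates. At the GI50, growth is halved. TGI denotes the concentration required for complete inhibition of growth.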

What was measured:
Experiment in all cases: NCI anticancer screen, dose series, 48 h
786-0 renal = system: 786-0 renal
A498 renal = system: A498 renal
A549 NSCLC = system: A549 NSCLC
ACHN renal = system: ACHN renal
BT-549 breast = system: BT-549 breast
CAKI-1 renal = system: CAKI-1 renal
CCRF-CEM leukemia = system: CCRF-CEM leukemia
COLO 205 colon = system: COLO 205 colon
DU-145 prostate = system: DU-145 prostate
EKVX NSCLC = system: EKVX NSCLC
HCC-2998 colon = system: HCC-2998 colon
HCT-116 colon = system: HCT-116 colon
HCT-15 colon = system: HCT-15 colon
HL-60(TB) leukemia = system: HL-60(TB) leukemia
HOP-62 NSCLC = system: HOP-62 NSCLC
HOP-92 NSCLC = system: HOP-92 NSCLC
HS 578T breast = system: HS 578T breast
HT29 colon = system: HT29 colon
IGROV1 ovarian = system: IGROV1 ovarian
K-562 leukemia = system: K-562 leukemia
KM12 colon = system: KM12 colon
LOX IMVI melanoma = system: LOX IMVI melanoma
M14 melanoma = system: M14 melanoma
MALME-3M melanoma = system: MALME-3M melanoma
MCF7 breast = system: MCF7 breast
MDA-MB-231 breast = system: MDA-MB-231 breast
MDA-MB-435 = system: MDA-MB-435
MOLT-4 leukemia = system: MOLT-4 leukemia
NCI-H226 lung = system: NCI-H226 lung
NCI-H23 lung = system: NCI-H23 lung
NCI-H460 lung = system: NCI-H460 lung
NCI-H522 lung = system: NCI-H522 lung
NCI/ADR-RES ovarian = system: NCI/ADR-RES ovarian
OVCAR-3 ovarian = system: OVCAR-3 ovarian
OVCAR-4 ovarian = system: OVCAR-4 ovarian
OVCAR-5 ovarian = system: OVCAR-5 ovarian
OVCAR-8 ovarian = system: OVCAR-8 ovarian
PC-3 prostate = system: PC-3 prostate
RPMI-8226 leukemia = system: RPMI-8226 leukemia
RXF 393 renal = system: RXF 393 renal
SF-268 CNS = system: SF-268 CNS
SF-295 CNS = system: SF-295 CNS
SF-539 CNS = system: SF-539 CNS
SK-MEL-2 melanoma = system: SK-MEL-2 melanoma
SK-MEL-28 melanoma = system: SK-MEL-28 melanoma
SK-MEL-5 melanoma = system: SK-MEL-5 melanoma
SK-OV-3 ovarian = system: SK-OV-3 ovarian
SN12C renal = system: SN12C renal
SNB-19 CNS = system: SNB-19 CNS
SNB-75 CNS = system: SNB-75 CNS
SR leukemia = system: SR leukemia
SW-620 colon = system: SW-620 colon
T-47D breast = system: T-47D breast
TK-10 renal = system: TK-10 renal
U251 CNS = system: U251 CNS
UACC-257 melanoma = system: UACC-257 melanoma
UACC-62 melanoma = system: UACC-62 melanoma
UO-31 renal = system: UO-31 renal

Question: How did the GI50 (786-0 renal) turn out when `O=C(/C=C/c1cc(Cl)ccc1Cl)Nc1ncc(Cc2ccc(Cl)cc2)s1` was run?
Answer: 0.112 µM

Question: What about the TGI (786-0 renal) of the same compound?
Answer: 3.24 µM

Question: What about the GI50 (A498 renal) of the same compound?
Answer: 0.0316 µM

Question: What about the TGI (A498 renal) of the same compound?
Answer: 0.235 µM

Question: And the GI50 (A549 NSCLC)?
Answer: 0.0992 µM

Question: And the TGI (A549 NSCLC)?
Answer: 13 µM

Question: And the GI50 (ACHN renal)?
Answer: 0.128 µM

Question: What about the TGI (ACHN renal) of the same compound?
Answer: 5.29 µM

Question: What about the GI50 (BT-549 breast) of the same compound?
Answer: 0.0574 µM

Question: What about the TGI (BT-549 breast) of the same compound?
Answer: 0.379 µM

Question: And the GI50 (CAKI-1 renal)?
Answer: 0.0618 µM

Question: And the TGI (CAKI-1 renal)?
Answer: 2.17 µM

Question: What about the GI50 (CCRF-CEM leukemia) of the same compound?
Answer: 0.0376 µM

Question: What about the TGI (CCRF-CEM leukemia) of the same compound?
Answer: > 100 µM

Question: And the GI50 (COLO 205 colon)?
Answer: 0.0823 µM

Question: And the TGI (COLO 205 colon)?
Answer: 0.378 µM

Question: And the GI50 (DU-145 prostate)?
Answer: 0.3 µM

Question: What about the TGI (DU-145 prostate) of the same compound?
Answer: 15.9 µM

Question: And the GI50 (EKVX NSCLC)?
Answer: 0.158 µM

Question: And the TGI (EKVX NSCLC)?
Answer: > 72.9 µM

Question: What about the GI50 (HCC-2998 colon) of the same compound?
Answer: 0.209 µM

Question: And the TGI (HCC-2998 colon)?
Answer: 10.7 µM

Question: And the GI50 (HCT-116 colon)?
Answer: 0.042 µM

Question: What about the TGI (HCT-116 colon) of the same compound?
Answer: 5.85 µM

Question: What about the GI50 (HCT-15 colon) of the same compound?
Answer: 0.0448 µM

Question: And the TGI (HCT-15 colon)?
Answer: > 37.9 µM

Question: What about the GI50 (HL-60(TB) leukemia) of the same compound?
Answer: 0.0282 µM

Question: And the TGI (HL-60(TB) leukemia)?
Answer: 0.256 µM

Question: And the GI50 (HOP-62 NSCLC)?
Answer: 0.0803 µM

Question: What about the TGI (HOP-62 NSCLC) of the same compound?
Answer: 6.03 µM

Question: And the GI50 (HOP-92 NSCLC)?
Answer: 0.715 µM

Question: And the TGI (HOP-92 NSCLC)?
Answer: 5.87 µM

Question: What about the GI50 (HS 578T breast) of the same compound?
Answer: 0.0524 µM

Question: What about the TGI (HS 578T breast) of the same compound?
Answer: 6.18 µM

Question: And the GI50 (HT29 colon)?
Answer: 0.0868 µM

Question: What about the TGI (HT29 colon) of the same compound?
Answer: 1.21 µM

Question: And the GI50 (IGROV1 ovarian)?
Answer: 0.165 µM

Question: What about the TGI (IGROV1 ovarian) of the same compound?
Answer: 16.3 µM

Question: And the GI50 (K-562 leukemia)?
Answer: 0.0352 µM

Question: What about the TGI (K-562 leukemia) of the same compound?
Answer: > 100 µM

Question: And the GI50 (KM12 colon)?
Answer: 0.0535 µM

Question: And the TGI (KM12 colon)?
Answer: > 28.1 µM

Question: And the GI50 (LOX IMVI melanoma)?
Answer: 0.101 µM

Question: And the TGI (LOX IMVI melanoma)?
Answer: 11.3 µM

Question: What about the GI50 (M14 melanoma) of the same compound?
Answer: 0.0405 µM

Question: And the TGI (M14 melanoma)?
Answer: 1.49 µM

Question: And the GI50 (MALME-3M melanoma)?
Answer: 0.866 µM

Question: What about the TGI (MALME-3M melanoma) of the same compound?
Answer: 43.3 µM

Question: What about the GI50 (MCF7 breast) of the same compound?
Answer: 0.0833 µM

Question: What about the TGI (MCF7 breast) of the same compound?
Answer: > 38.8 µM

Question: What about the GI50 (MDA-MB-231 breast) of the same compound?
Answer: 0.179 µM

Question: And the TGI (MDA-MB-231 breast)?
Answer: 9.53 µM

Question: And the GI50 (MDA-MB-435)?
Answer: 0.0192 µM

Question: What about the TGI (MDA-MB-435) of the same compound?
Answer: 0.0414 µM

Question: And the GI50 (MOLT-4 leukemia)?
Answer: 0.122 µM

Question: What about the TGI (MOLT-4 leukemia) of the same compound?
Answer: > 100 µM

Question: And the GI50 (NCI-H226 lung)?
Answer: 0.31 µM

Question: What about the TGI (NCI-H226 lung) of the same compound?
Answer: 12 µM

Question: And the GI50 (NCI-H23 lung)?
Answer: 0.0673 µM

Question: What about the TGI (NCI-H23 lung) of the same compound?
Answer: 11 µM

Question: And the GI50 (NCI-H460 lung)?
Answer: 0.064 µM

Question: What about the TGI (NCI-H460 lung) of the same compound?
Answer: 1.51 µM

Question: And the GI50 (NCI-H522 lung)?
Answer: 0.0333 µM

Question: And the TGI (NCI-H522 lung)?
Answer: 0.155 µM

Question: What about the GI50 (NCI/ADR-RES ovarian) of the same compound?
Answer: 0.0429 µM

Question: What about the TGI (NCI/ADR-RES ovarian) of the same compound?
Answer: 2.28 µM

Question: What about the GI50 (OVCAR-3 ovarian) of the same compound?
Answer: 0.113 µM

Question: What about the TGI (OVCAR-3 ovarian) of the same compound?
Answer: 1.28 µM

Question: And the GI50 (OVCAR-4 ovarian)?
Answer: 1.59 µM

Question: What about the TGI (OVCAR-4 ovarian) of the same compound?
Answer: 10.8 µM

Question: What about the GI50 (OVCAR-5 ovarian) of the same compound?
Answer: 0.197 µM

Question: And the TGI (OVCAR-5 ovarian)?
Answer: 13.8 µM

Question: And the GI50 (OVCAR-8 ovarian)?
Answer: 0.0695 µM

Question: And the TGI (OVCAR-8 ovarian)?
Answer: 1.84 µM

Question: And the GI50 (PC-3 prostate)?
Answer: 0.105 µM

Question: What about the TGI (PC-3 prostate) of the same compound?
Answer: > 53.7 µM

Question: And the GI50 (RPMI-8226 leukemia)?
Answer: 0.0674 µM

Question: And the TGI (RPMI-8226 leukemia)?
Answer: 16.5 µM

Question: What about the GI50 (RXF 393 renal) of the same compound?
Answer: 0.0276 µM

Question: And the TGI (RXF 393 renal)?
Answer: 0.306 µM

Question: And the GI50 (SF-268 CNS)?
Answer: 1.17 µM

Question: And the TGI (SF-268 CNS)?
Answer: 52.9 µM

Question: And the GI50 (SF-295 CNS)?
Answer: 0.0382 µM

Question: What about the TGI (SF-295 CNS) of the same compound?
Answer: 5.13 µM

Question: And the GI50 (SF-539 CNS)?
Answer: 0.0328 µM

Question: What about the TGI (SF-539 CNS) of the same compound?
Answer: 0.202 µM

Question: And the GI50 (SK-MEL-2 melanoma)?
Answer: 0.144 µM

Question: And the TGI (SK-MEL-2 melanoma)?
Answer: 4.52 µM

Question: What about the GI50 (SK-MEL-28 melanoma) of the same compound?
Answer: 1.98 µM

Question: And the TGI (SK-MEL-28 melanoma)?
Answer: 53.4 µM

Question: And the GI50 (SK-MEL-5 melanoma)?
Answer: 0.299 µM

Question: What about the TGI (SK-MEL-5 melanoma) of the same compound?
Answer: 5.19 µM

Question: And the GI50 (SK-OV-3 ovarian)?
Answer: 0.0787 µM

Question: What about the TGI (SK-OV-3 ovarian) of the same compound?
Answer: 17 µM

Question: What about the GI50 (SN12C renal) of the same compound?
Answer: 0.15 µM

Question: And the TGI (SN12C renal)?
Answer: 11.7 µM

Question: And the GI50 (SNB-19 CNS)?
Answer: 0.0702 µM

Question: What about the TGI (SNB-19 CNS) of the same compound?
Answer: 31.4 µM

Question: And the GI50 (SNB-75 CNS)?
Answer: 0.0391 µM

Question: And the TGI (SNB-75 CNS)?
Answer: 2.47 µM

Question: What about the GI50 (SR leukemia) of the same compound?
Answer: 0.0324 µM

Question: What about the TGI (SR leukemia) of the same compound?
Answer: > 100 µM

Question: And the GI50 (SW-620 colon)?
Answer: 0.0454 µM

Question: And the TGI (SW-620 colon)?
Answer: > 100 µM

Question: What about the GI50 (T-47D breast) of the same compound?
Answer: 14.1 µM

Question: What about the TGI (T-47D breast) of the same compound?
Answer: > 100 µM

Question: What about the GI50 (TK-10 renal) of the same compound?
Answer: 1.3 µM

Question: What about the TGI (TK-10 renal) of the same compound?
Answer: 11.1 µM

Question: What about the GI50 (U251 CNS) of the same compound?
Answer: 0.0395 µM

Question: What about the TGI (U251 CNS) of the same compound?
Answer: 3.88 µM

Question: What about the GI50 (UACC-257 melanoma) of the same compound?
Answer: 0.226 µM

Question: What about the TGI (UACC-257 melanoma) of the same compound?
Answer: > 46.9 µM

Question: What about the GI50 (UACC-62 melanoma) of the same compound?
Answer: 0.0507 µM

Question: And the TGI (UACC-62 melanoma)?
Answer: 18 µM

Question: And the GI50 (UO-31 renal)?
Answer: 0.142 µM

Question: What about the TGI (UO-31 renal) of the same compound?
Answer: 7.36 µM
